Laboratory results: US4251546A, “Process for killing internal helminths using certain 1,1-bis-(2-substituted-3-nitrophenyl)alkane or alkylene derivatives” (ICI Australia Limited, priority 1977, dated 1981)

Experiments:
live Fasciola hepatica = experiment: Minimum effective concentration against live Fasciola hepatica in Hedon-Fleig medium (Table 4); conditions: in vitro, assessed 24 hours after treatment, read-out: MINIMUM EFFECTIVE CONCENTRATION (minimum concentration required to kill Fasciola hepatica)
Procedure: The minimum effective concentration of compounds of formula I against live Fasciola hepatica was tested by the direct application of the test compound, in solution, to live Fasciola hepatica in Hedon-Fleig medium. The results are given in Table 4 where the minimum effective concentration (minimum concentration required to kill Fasciola hepatica) was assessed 24 hours after treatment with the test compound.

[1] = test system: sheep liver fluke (Fasciola hepatica); experiment: Fluke egg count in faeces and adult fluke count in liver of infected sheep after a single s/c dose (Table 3); format: in vivo; conditions: for POST MORTEM RESULT No. of adult fluke: liver
Procedure: Compositions suitable for use as experimental injectable solutions were prepared by formulating the compounds as solutions of their salts either in water or in a mixture of water and ethylene glycol or water and polyethylene glycol (PEG200).
Compositions prepared by the method of Example 10 were used as a single dose to test sheep infected with sheep liver fluke (Fasciola hepatica). The number of liver fluke eggs in the faeces was measured at the time of treatment and at selected intervals up to 30 days after treatment. The sheep were killed and the number of adult fluke in the liver counted. The amount and structure of the active ingredient in each composition and the results of treatment of a sheep with that composition are given in the Table 3 below. The compositions were administered by sub-cutaneous injection (s/c).

immature fluke = experiment: Effectiveness against immature fluke (Table 3 footnotes); format: in vivo, Fasciola hepatica

O=[N+]([O-])c1cc(Br)cc(C(c2cc(Br)cc([N+](=O)[O-])c2O)C(F)(F)F)c1O [Compound 56]
minimal effective concentration (live Fasciola hepatica): 1 µg/mL
FAECAL EGG COUNT, day 7 ([1]; single dose 6.0 mg/kg): 10 Eggs/g faeces
FAECAL EGG COUNT, day 14 ([1]; single dose 6.0 mg/kg): 0 Eggs/g faeces
POST MORTEM RESULT No. of adult fluke ([1]; single dose 6.0 mg/kg): 0

O=[N+]([O-])c1cc(Br)cc(C(=C(Cl)Cl)c2cc(Br)cc([N+](=O)[O-])c2O)c1O [Compound 15]
FAECAL EGG COUNT, day 7 ([1]; single dose 2.0 mg/kg): 0 Eggs/g faeces
FAECAL EGG COUNT, day 14 ([1]; single dose 2.0 mg/kg): 0 Eggs/g faeces
POST MORTEM RESULT No. of adult fluke ([1]; single dose 2.0 mg/kg): 0
FAECAL EGG COUNT, day 7 ([1]; single dose 12.5 mg/kg): 0 Eggs/g faeces
FAECAL EGG COUNT, day 14 ([1]; single dose 12.5 mg/kg): 0 Eggs/g faeces
POST MORTEM RESULT No. of adult fluke ([1]; single dose 12.5 mg/kg): 0
effective against immature fluke (immature fluke; 10 mg/kg): 91.4%
effective against immature fluke (immature fluke; 15 mg/kg): 94%

O=[N+]([O-])c1cc(Cl)cc(C(c2cc(Cl)cc([N+](=O)[O-])c2O)C(F)(F)F)c1O [Compound 53, 1,1-Bis(5-chloro-2-hydroxy-3-nitrophenyl)-2,2,2-trifluoroethane]
FAECAL EGG COUNT, day 7 ([1]; single dose 3.0 mg/kg): 460 Eggs/g faeces
FAECAL EGG COUNT, day 14 ([1]; single dose 3.0 mg/kg): 0 Eggs/g faeces
POST MORTEM RESULT No. of adult fluke ([1]; single dose 3.0 mg/kg): 0
FAECAL EGG COUNT, day 7 ([1]; single dose 6.0 mg/kg): 0 Eggs/g faeces
FAECAL EGG COUNT, day 14 ([1]; single dose 6.0 mg/kg): 0 Eggs/g faeces
POST MORTEM RESULT No. of adult fluke ([1]; single dose 6.0 mg/kg): 0
effective against immature fluke (immature fluke; 15 mg/kg): 97%

O=[N+]([O-])c1cc(Cl)cc(C(c2cc(Cl)cc([N+](=O)[O-])c2O)C(F)(F)C(F)(F)F)c1O [Compound 54]
FAECAL EGG COUNT, day 7 ([1]; single dose 2.0 mg/kg): 10 Eggs/g faeces
FAECAL EGG COUNT, day 14 ([1]; single dose 2.0 mg/kg): 0 Eggs/g faeces
POST MORTEM RESULT No. of adult fluke ([1]; single dose 2.0 mg/kg): 0
FAECAL EGG COUNT, day 7 ([1]; single dose 6.0 mg/kg): 0 Eggs/g faeces
FAECAL EGG COUNT, day 14 ([1]; single dose 6.0 mg/kg): 0 Eggs/g faeces
POST MORTEM RESULT No. of adult fluke ([1]; single dose 6.0 mg/kg): 0
effective against immature fluke (immature fluke; 15 mg/kg): 83%

O=[N+]([O-])c1cc(Cl)cc(C(=C(Cl)Cl)c2cc(Cl)cc([N+](=O)[O-])c2O)c1O [Compound 14]
FAECAL EGG COUNT, day 7 ([1]; single dose 0.5 mg/kg): 0 Eggs/g faeces
FAECAL EGG COUNT, day 14 ([1]; single dose 0.5 mg/kg): 0 Eggs/g faeces
POST MORTEM RESULT No. of adult fluke ([1]; single dose 0.5 mg/kg): 0
FAECAL EGG COUNT, day 7 ([1]; single dose 2.0 mg/kg): 60 Eggs/g faeces
FAECAL EGG COUNT, day 14 ([1]; single dose 2.0 mg/kg): 0 Eggs/g faeces
POST MORTEM RESULT No. of adult fluke ([1]; single dose 2.0 mg/kg): 0
FAECAL EGG COUNT, day 7 ([1]; single dose 12.5 mg/kg): 0 Eggs/g faeces
FAECAL EGG COUNT, day 14 ([1]; single dose 12.5 mg/kg): 0 Eggs/g faeces
POST MORTEM RESULT No. of adult fluke ([1]; single dose 12.5 mg/kg): 0
effective against immature fluke (immature fluke; 10 mg/kg): 90.6%
effective against immature fluke (immature fluke; 15 mg/kg): 100%

O=[N+]([O-])c1cc(Cl)cc(C(Oc2ccc(F)cc2)c2cc(Cl)cc([N+](=O)[O-])c2O)c1O [Compound 35]
minimal effective concentration (live Fasciola hepatica): 5 µg/mL

COc1ccc(CSC(c2cc(Cl)cc([N+](=O)[O-])c2O)c2cc(Cl)cc([N+](=O)[O-])c2O)cc1 [Compound 48]
minimal effective concentration (live Fasciola hepatica): 1 µg/mL
